Data as given in patent US4946838A, “Crystalline anhydrous aztreonam” (priority 1986, dated 1990).
“Also recorded” adds a separate entry of the source. Where two headings read alike, the source gives them in different places.

Experiments:
[1] = Powder properties (density, surface area, flowability); format: physicochemical; details: in words
[2] = Hygroscopicity (Equilibrium Moisture Content and rate); format: physicochemical; details: for Hygroscopicity: Rate: in words
[3] = Intrinsic Dissolution Rate; format: physicochemical; details: in words
[4] = Differential Scanning Calorimetry (DSC), peak temperatures; format: physicochemical
[5] = Hydration (water content) of crystalline forms; format: physicochemical; details: for Hydration: in words
[6] = Crystallinity and morphology (microscopy, X-ray diffraction); format: physicochemical
[7] = compared with α-form or simple salts; powder for reconstitution

## C[C@H]1[C@H](NC(=O)/C(=N\OC(C)(C)C(=O)O)c2csc(N)n2)C(=O)N1S(=O)(=O)O [α-Form, [3S-[3α(Z),4β]]-3-[[(2-amino-4-thiazolyl)[(1-carboxy-1-methylethoxy)imino]acetyl]amino]-4-methyl-2-oxo-1-azetidinesulfonic acid]
[1]
  Density: low
  Flowability: poor
  Surface Area: high
[2]
  Hygroscopicity: EMC (Equilibrium Moisture Content): 0-14%
  Hygroscopicity: Rate: rapid
[3]
  Intrinsic Dissolution Rate: slow
[4]; decomp.
  DSC, peak temperature, exotherm: 200 °C
[4]; dehydration
  DSC, peak temperature, endotherm: 107 °C
[5]
  Hydration, water content: 7-14 % water
  Hydration: Hydrous
[6]
  Morphology: needles or rods
  Crystallinity: X-ray diffraction: crystalline
  Crystallinity: Microscopy: birefringent

## C[C@H]1[C@H](NC(=O)/C(=N\OC(C)(C)C(=O)O)c2csc(N)n2)C(=O)N1S(=O)(=O)O [β-Form, [3S-[3α(Z),4β]]-3-[[(2-amino-4-thiazolyl)[(1-carboxy-1-methylethoxy)imino]acetyl]amino]-4-methyl-2-oxo-1-azetidinesulfonic acid]
[1]
  Density: high
  Flowability: good
  Surface Area: low
[1]; listed as β-form
  Density: dense
[2]
  Hygroscopicity: nonhygroscopic; also recorded: substantially non-hygroscopic
  Hygroscopicity: EMC (Equilibrium Moisture Content): 0-3%
  Hygroscopicity: Rate: slow
[2]; listed as crystalline, anhydrous form
  Hygroscopicity: substantially non-hygroscopic
[3]
  Intrinsic Dissolution Rate: fast
[4]; decomp, when crystallized from absolute ethanol
  DSC, peak temperature, exotherm: 228 °
[4]; decomp, when crystallized from absolute methanol
  DSC, peak temperature, exotherm: 238 °
[4]; in words
  DSC, endotherm: none
[7]
  Shelf life: greater than that of the α-form, or for that matter simple salts of the compound
[5]
  Hydration, water content: 0-1 % water
  Hydration: Anhydrous
[5]; listed as β-form
  Hydration: anhydrous
[6]
  Morphology: spiny fused spherulites
  Crystallinity: X-ray diffraction: crystalline
  Crystallinity: Microscopy: birefringent
